Tests used:
human GC-A = target: T1, human GC-A (Homo sapiens, UniProt P16066); assay: EC50 and Emax cGMP determination, HTRF, human GC-A overexpressing HEK293 cells; assay type: cell-based; settings: HEK293 GC-A cells
T1 construct: host or cells: HEK293
T1 sequence (P16066 33-1061): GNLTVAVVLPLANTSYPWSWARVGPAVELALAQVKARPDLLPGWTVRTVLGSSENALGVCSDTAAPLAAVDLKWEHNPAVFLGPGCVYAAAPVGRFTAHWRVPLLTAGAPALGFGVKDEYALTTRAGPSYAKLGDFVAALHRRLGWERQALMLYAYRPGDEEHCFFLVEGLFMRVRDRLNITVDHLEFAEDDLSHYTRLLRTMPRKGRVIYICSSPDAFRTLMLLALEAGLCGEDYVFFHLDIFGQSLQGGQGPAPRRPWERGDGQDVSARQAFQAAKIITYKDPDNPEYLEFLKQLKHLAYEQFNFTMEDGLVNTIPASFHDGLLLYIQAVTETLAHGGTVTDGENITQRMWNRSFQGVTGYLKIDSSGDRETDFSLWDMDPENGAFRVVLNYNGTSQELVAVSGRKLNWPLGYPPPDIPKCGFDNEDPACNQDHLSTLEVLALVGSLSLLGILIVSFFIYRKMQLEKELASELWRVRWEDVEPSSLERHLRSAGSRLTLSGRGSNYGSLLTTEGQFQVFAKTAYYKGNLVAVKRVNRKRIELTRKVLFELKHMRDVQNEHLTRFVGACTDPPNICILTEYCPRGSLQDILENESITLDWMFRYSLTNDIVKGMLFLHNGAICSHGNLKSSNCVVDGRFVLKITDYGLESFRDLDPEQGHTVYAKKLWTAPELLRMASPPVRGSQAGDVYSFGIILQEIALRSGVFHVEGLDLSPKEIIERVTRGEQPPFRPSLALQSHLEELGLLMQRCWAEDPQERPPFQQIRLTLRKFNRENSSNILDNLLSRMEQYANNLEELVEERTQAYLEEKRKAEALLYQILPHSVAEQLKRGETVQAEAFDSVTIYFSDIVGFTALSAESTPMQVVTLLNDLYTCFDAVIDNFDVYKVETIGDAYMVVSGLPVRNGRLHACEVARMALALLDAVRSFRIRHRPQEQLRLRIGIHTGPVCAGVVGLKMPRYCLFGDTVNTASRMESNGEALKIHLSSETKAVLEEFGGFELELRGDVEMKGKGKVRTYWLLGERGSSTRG
T1 sequence (P01160 124-151 partner limits assumed): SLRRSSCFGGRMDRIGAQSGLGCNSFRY
Procedure: Test compounds were evaluated for potentiation of cGMP in human GC-A overexpressing HEK293 cells (Cardiorenal Research Laboratory, Mayo Clinic). Test compounds at 10 mM DMSO stock concentration were dispensed into 384 well small volume white plates using Tecan D300e digital dispenser starting at 5 μM or 40 μM concentration and diluted 2-fold for 10-point concentration response. Wells were backfilled with DMSO such that the final concentration of DMSO in all wells was maintained at 0.3% DMSO. Atrial natriuretic peptide (ANP, Phoenix Pharmaceuticals) ANP was prepared as working stock aliquots at 5 μM in phosphate-buffered solution (PBS) with 0.1% bovine serum albumin (BSA) and diluted to […] in buffer plus Tween20 at 0.3% and added to plates to a final concentration equivalent to EC20 ANP in the cGMP assay. GC-A cells in suspension ([…]) in OptiMem media (ThermoFisher 11058-021) supplemented with 2% fetal bovine serum were plated at 1×10^6 cells/mL and assay plates were spun at 1000 rpm for 30 sec and incubated at room temperature for 30 min. GC-A-mediated activation of cGMP production was measured using cGMP CisBio detection homogenous time-resolved florescence (HTRF) competition assay using labeled-cGMP in human GC-A-overexpressing HEK293 cells. 5 μL of d-2 acceptor was dispensed into each well followed by addition of 5 μL of Anti-cGMP Eu-Cryptate antibody donor and plates were spun at 1000 rpm for 30 sec and incubated in the dark at room temperature for 1 hr. HTRF florescence was read on the ClarioStar microplate reader (BMG). A 100% response was determined from wells in the absence of compound and presence of saturating concentration of ANP (10 nM), and 0) % response was determined from wells containing an EC20 concentration of ANP determined for each new lot of ANP. Concentration-response curves for test compounds were analyzed by […] analysis using GraphPad software to determine EC50 and Emax values.

[1] = test system: Primary Human cardiomyocytes; assay: cGMP levels (ELISA) in human cardiomyocytes; assay type: cell-based; settings: acetate salt, ANP (10^-10 M); for cGMP generation in HCMs in the presence of ANP: 1 or 10 μM, vs vehicle
Procedure: Primary Human cardiomyocytes (HCMs: Catalog No. 6200, Lot No. 6288, PromoCell) were maintained and subcultured according to the manufacturer's protocols. Passage 5 was used in the study. Treatment buffer, Compound 3, Compound 1 and Compound 2 acetate salt, ANP, and vehicle were prepared as described above. Briefly, 5×10^5 of cells/well were grown in 6-well plates until 80 to 90% confluency and were then pretreated with vehicle or Compound 3, Compound 1 or Compound 2 at doses of 1 or 10 μM for 5 min at 37° C., then cells were treated with ANP (10^-10 M) for an additional 10 min at 37° C. Afterward, all cells were washed with PBS once and lysed with 0.1 M HCl at room temperature, and intracellular cGMP levels were measured in the lysate using a commercial cGMP ELISA kit (Enzo Life Sciences) with the acetylation method as instructed by the manufacturer.

| potency in potentiating ANP-mediated cGMP generation (comparison between forms/enantiomers) (human GC-A) | SMILES | cGMP generation in HCMs in the presence of ANP [1] | cGMP generation in HCMs, Compound 1 compared with Compound 2 ([1]; both doses) |
| --- | --- | --- | --- |
| more potent | CN(C)CCN1CCC[C@H](C(=O)Nc2nc3c(F)cc(F)cc3s2)C1 [Compound 1, (S)-N-(4,6-difluorobenzo[d]thiazol-2-yl)-1-(2-(dimethylamino)ethyl) piperidine-3-carboxamide] | increased cGMP levels in a dose dependent manner | more potent |
| – | CN(C)CCN1CCC[C@@H](C(=O)Nc2nc3c(F)cc(F)cc3s2)C1 [Compound 2, (R)-N-(4,6-difluorobenzo[d]thiazol-2-yl)-1-(2-(dimethylamino)ethyl) piperidine-3-carboxamide] | increased cGMP levels in a dose dependent manner | – |

From US20250026746A1, “ENHANCERS OF PARTICULATE GUANYLYL CYCLASE RECEPTOR A” (Mayo Foundation for Medical Education and Research, priority 2021, published 2025)
